# Measured values from ChEMBL document CHEMBL1201862, “PubChem BioAssay data set” (2004).
# Activity calls are given as the source filed them.
# Assays:
# [1] = target: T1, Heat shock factor protein 1 (Mus musculus, UniProt P38532); assay: enhancement of HSF1-driven luciferase signal – cell-based, NIH3T3, luminescence, dose retest, confirmation (AID 435004); assay type: functional;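 also: stress induced by proteasome inhibitor MG132 added 30 min after compound; luciferase reporter driven by HSF1 response element in NIH3T3 cells; actives raise luminescence as potentiators of the MG132 stress response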
# T1 sequence (P38532 whole entry): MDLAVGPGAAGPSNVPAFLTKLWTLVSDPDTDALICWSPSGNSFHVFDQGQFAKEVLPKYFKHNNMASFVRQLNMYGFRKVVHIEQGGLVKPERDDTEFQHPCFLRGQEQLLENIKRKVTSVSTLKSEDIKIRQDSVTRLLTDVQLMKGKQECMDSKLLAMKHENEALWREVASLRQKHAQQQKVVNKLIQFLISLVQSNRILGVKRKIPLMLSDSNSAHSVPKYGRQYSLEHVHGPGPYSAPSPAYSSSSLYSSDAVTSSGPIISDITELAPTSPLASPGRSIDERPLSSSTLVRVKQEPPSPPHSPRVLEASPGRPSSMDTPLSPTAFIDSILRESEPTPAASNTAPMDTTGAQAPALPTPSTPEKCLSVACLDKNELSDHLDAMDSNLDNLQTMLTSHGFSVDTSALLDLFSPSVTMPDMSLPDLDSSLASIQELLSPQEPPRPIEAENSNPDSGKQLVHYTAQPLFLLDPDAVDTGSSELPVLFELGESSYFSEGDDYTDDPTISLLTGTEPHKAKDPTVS
# [2] = target: DNA damage-inducible transcript 3 protein (Mus musculus, UniProt P35639); assay type: functional, Cricetulus griseus
# Coagulation factor XII = target: T2, Coagulation factor XII (Homo sapiens, UniProt P00748); assay type: functional;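 also: activated factor XIIa alpha cleaving a fluorogenic AMC peptide substrate; inhibitor potency from loss of enzyme activity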
# T2 sequence (P00748 whole entry): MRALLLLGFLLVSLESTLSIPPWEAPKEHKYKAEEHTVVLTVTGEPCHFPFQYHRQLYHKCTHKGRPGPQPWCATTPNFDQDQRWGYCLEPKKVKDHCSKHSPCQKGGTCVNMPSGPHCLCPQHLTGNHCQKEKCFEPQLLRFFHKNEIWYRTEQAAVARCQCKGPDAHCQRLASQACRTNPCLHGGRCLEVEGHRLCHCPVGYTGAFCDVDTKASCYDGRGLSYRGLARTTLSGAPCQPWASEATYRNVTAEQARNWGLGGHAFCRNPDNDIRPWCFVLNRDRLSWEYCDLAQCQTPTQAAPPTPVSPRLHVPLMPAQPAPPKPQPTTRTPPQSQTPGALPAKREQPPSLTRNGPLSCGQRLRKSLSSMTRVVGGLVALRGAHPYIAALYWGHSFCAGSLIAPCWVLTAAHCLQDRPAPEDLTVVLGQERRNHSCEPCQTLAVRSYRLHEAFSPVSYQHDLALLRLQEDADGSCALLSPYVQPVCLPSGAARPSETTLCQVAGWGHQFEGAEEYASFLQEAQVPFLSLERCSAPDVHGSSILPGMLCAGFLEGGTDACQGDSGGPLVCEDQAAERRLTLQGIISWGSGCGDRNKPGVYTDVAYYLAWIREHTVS
# Cysteine protease ATG4B = target: T3, Cysteine protease ATG4B (Homo sapiens, UniProt Q9Y4P1); assay type: functional;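 also: Fluorescence-based dose-response confirmation assay measuring inhibition of ATG4B activity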
# T3 sequence (Q9Y4P1 whole entry): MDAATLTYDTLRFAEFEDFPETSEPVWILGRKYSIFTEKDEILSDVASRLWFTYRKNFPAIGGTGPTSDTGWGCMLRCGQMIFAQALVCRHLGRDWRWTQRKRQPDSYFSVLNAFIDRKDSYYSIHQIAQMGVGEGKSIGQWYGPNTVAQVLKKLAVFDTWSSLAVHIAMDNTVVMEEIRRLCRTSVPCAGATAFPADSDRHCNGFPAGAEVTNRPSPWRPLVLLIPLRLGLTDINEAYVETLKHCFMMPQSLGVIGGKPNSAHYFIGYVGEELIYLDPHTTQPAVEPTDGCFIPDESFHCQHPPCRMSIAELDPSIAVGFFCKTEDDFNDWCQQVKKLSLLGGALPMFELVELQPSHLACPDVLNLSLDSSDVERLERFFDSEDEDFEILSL
# Phospholipase A2 = Phospholipase A2 (Homo sapiens, UniProt P04054); assay type: functional;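 also: confirmatory dose-response counterscreen on phospholipase A2, testing hits that came from an ultra-high-throughput screen for ATG4B inhibitors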
# [3] = target: T4, Replicative DNA helicase DnaB (Mycobacterium tuberculosis, UniProt P9WMR3); assay: DnaB intein splicing inhibitors, dose response, biochemical, cell-free fluorescence (AID 449749); assay type: functional
# T4 sequence (P9WMR3 whole entry): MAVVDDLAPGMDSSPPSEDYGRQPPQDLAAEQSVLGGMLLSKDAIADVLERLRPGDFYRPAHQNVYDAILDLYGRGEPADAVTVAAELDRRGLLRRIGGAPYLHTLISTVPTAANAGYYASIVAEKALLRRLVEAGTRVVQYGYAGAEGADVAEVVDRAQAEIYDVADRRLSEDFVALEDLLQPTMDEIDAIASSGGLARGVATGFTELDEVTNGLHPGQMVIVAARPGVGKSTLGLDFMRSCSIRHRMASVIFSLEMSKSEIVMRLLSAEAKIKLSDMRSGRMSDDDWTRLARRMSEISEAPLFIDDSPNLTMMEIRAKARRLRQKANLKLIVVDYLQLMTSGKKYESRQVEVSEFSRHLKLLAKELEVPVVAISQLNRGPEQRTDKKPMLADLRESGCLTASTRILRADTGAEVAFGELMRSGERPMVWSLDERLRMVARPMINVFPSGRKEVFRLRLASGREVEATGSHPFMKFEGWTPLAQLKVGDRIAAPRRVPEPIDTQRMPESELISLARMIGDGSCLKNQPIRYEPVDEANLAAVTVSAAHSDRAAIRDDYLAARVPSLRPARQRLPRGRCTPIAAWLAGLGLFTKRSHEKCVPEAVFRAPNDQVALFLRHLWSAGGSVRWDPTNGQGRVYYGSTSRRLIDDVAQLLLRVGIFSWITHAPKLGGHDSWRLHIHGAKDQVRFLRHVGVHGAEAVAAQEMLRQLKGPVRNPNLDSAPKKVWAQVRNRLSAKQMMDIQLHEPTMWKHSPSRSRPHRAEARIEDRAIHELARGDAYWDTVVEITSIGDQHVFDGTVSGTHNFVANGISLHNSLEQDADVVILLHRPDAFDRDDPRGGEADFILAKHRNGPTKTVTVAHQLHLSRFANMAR
# Protein RecA = target: T5, Protein RecA (Mycobacterium tuberculosis, UniProt P9WHJ3); assay: Fluorescence Cell-Free Homogeneous Dose Retest to Identify Inhibitors of RecA-Intein Splicing Activity. [Related pubchem assays (depositor defined):AID2097, AID2223, AID489010, AID492950]; assay type: functional
# T5 sequence (P9WHJ3 whole entry): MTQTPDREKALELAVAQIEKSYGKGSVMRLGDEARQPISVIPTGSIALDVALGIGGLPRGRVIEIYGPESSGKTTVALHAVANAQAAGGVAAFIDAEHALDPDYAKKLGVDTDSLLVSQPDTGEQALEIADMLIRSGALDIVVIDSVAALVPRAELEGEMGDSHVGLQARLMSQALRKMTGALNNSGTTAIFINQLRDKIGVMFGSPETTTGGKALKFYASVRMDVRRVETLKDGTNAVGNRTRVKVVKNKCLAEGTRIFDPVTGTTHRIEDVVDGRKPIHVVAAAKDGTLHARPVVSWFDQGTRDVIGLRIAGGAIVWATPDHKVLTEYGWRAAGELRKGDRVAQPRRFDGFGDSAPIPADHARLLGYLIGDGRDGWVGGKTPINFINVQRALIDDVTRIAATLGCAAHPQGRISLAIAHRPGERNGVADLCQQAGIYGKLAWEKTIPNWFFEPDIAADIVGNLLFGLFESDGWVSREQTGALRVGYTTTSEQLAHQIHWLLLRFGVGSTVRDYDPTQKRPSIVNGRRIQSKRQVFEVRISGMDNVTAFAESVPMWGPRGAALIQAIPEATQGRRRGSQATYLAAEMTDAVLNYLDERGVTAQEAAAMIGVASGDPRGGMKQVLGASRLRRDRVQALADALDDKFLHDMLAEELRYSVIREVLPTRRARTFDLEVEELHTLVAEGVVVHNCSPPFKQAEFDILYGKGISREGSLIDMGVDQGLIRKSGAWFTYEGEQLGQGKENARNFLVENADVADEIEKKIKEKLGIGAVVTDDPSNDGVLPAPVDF
# [4] = target: T6, Probable nicotinate-nucleotide adenylyltransferase (Staphylococcus aureus (strain N315), UniProt P65502); assay type: functional, Staphylococcus aureus subsp. aureus N315;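 as to IC50 Mean: confirmatory dose-response retesting of NadD inhibitor hits first found in an ultra-high-throughput screen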
# [5] = target: T6, Probable nicotinate-nucleotide adenylyltransferase; assay type: functional, Staphylococcus aureus subsp. aureus N315; conditions: read-out: IC50_Mean
# BJ [6] = assay: BJ-TERT fibroblast viability loss – cell-based, RAS-independent, luminescence, dose response (AID 1933); assay type: functional; conditions: Homo sapiens
# BJ [7] = assay: cells; assay type: functional, cell-based; conditions: Homo sapiens
# [8] = Trypanosoma cruzi growth suppression in host cells – NIH3T3 host cells, beta-gal luminescence, confirmation (AID 2044); assay type: functional, cell-based;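 also: intracellular parasites grown in NIH/3T3 mouse fibroblasts as host cells; luminescent beta-galactosidase reporter signal from transgenic T. cruzi replicating inside host cells; inhibitors lower the luminescence signal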
# [9] = microbe, parasite or virus in culture; assay type: functional; conditions: Mycobacterium tuberculosis
# [10] = viability of PTEN-deleted HCT116 cells – cell-based, HCT116 PTEN knockout, dose response (AID 1047); assay type: functional;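 also: HCT116 colon tumor cells with PTEN knocked out; cells exposed to compound for 60 hours before readout; potency for loss of cell viability measured by luminescence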
# [11] = NIH3T3 cell viability loss – ATP luminescence, mouse fibroblasts, counter-screen, dose response (AID 2010); assay type: functional, cell-based;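 also: cells exposed to compound for about 90 hours before reading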
# [12] = viability of HCT116 lacking mutant beta-catenin – cell-based, human colon tumor, dose response (AID 1045); assay type: functional;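 also: HCT116 colon tumor cells with beta catenin knocked out; cells exposed to compound for 60 hours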
# BJ [13] = assay: BJ-TERT-LT-ST fibroblast viability loss – cell-based, RAS-independent, luminescence, dose response (AID 1935); assay type: functional; conditions: Homo sapiens;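 also: BJ fibroblasts immortalized with TERT plus LT and ST oncogenes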
# [14] = DRD fibroblast viability loss – cell-based, non-viral oncogenic, luminescence, dose response (AID 1934); assay type: functional; conditions: Homo sapiens
# [15] = target: T7, Mannose-6-phosphate isomerase (Homo sapiens, UniProt P34949); assay: MPI inhibition at elevated mannose 6-phosphate – biochemical, fluorescence intensity, high mannose 6-phosphate, primary screen (AID 1220)
# T7 sequence (P34949 whole entry): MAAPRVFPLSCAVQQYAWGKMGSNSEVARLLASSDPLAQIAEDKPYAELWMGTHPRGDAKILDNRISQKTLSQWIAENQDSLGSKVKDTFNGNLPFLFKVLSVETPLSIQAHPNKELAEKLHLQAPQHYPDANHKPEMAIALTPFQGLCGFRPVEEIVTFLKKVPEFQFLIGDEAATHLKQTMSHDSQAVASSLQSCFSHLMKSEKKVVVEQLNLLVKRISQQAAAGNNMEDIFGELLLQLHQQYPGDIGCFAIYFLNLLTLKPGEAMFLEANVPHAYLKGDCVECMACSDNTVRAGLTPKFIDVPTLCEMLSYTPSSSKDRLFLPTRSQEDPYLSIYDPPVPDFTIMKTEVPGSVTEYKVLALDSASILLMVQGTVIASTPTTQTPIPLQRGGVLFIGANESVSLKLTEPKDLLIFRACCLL
# [16] = THP-1 cell cytotoxicity, dose response, cytotoxicity control for non-replicating M. tuberculosis project (AID 489025); assay type: functional
# [17] = HepG2 cell cytotoxicity, dose response, cytotoxicity control for non-replicating M. tuberculosis project (AID 489018); assay type: functional; conditions: Mycobacterium tuberculosis
# [18] = Vero E6 cell cytotoxicity, dose response, cytotoxicity control for non-replicating M. tuberculosis project, secondary assay (AID 492998); assay type: functional, VeroE6; conditions: Vero C1008
# cells = assay type: functional
# INS1 = assay: INS-1E survival protection against cytokine death – cell-based, luminescence, retest, dose response (AID 449756); assay type: functional; conditions: Rattus norvegicus;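 also: cell death triggered by IL-1 beta plus TNF-alpha plus IFN-gamma mixture; protective hits raise ATP signal compared with cytokine alone wells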
# [19] = target: T8, Tyrosyl-DNA phosphodiesterase 2 (Homo sapiens, UniProt O95551); assay: potency against TDP2 phosphodiesterase activity – biochemical, epi absorbance, IC50, dose response (AID 743297)
# T8 sequence (O95551 whole entry): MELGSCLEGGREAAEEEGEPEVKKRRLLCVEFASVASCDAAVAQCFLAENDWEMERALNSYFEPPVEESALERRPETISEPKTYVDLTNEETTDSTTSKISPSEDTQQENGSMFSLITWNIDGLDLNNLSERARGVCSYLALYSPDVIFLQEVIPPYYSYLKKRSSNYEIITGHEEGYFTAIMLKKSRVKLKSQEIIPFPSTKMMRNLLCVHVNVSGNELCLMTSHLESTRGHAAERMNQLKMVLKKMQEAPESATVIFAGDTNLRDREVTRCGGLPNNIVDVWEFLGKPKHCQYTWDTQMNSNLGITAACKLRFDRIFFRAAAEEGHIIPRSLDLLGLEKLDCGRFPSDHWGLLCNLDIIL
# T6 sequence (P65502 whole entry): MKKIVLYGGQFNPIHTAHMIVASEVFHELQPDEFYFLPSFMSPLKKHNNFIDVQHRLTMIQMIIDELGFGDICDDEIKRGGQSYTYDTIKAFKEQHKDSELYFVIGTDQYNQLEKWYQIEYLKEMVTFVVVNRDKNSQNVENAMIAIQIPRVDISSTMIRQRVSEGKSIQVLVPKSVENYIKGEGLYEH
# Chain of DNA damage-inducible transcript 3 protein (P35639 whole entry): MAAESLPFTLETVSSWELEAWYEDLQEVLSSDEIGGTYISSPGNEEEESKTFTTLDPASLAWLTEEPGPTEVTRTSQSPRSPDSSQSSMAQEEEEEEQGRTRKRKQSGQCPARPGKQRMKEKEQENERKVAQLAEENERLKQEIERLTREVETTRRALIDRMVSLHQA
# Chain of Phospholipase A2 (P04054 whole entry): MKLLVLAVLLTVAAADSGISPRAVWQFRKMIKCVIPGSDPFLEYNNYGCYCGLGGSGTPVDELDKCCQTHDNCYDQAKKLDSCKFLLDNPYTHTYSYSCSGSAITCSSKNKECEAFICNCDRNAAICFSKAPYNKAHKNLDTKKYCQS
compound,measurement,setting,value
CCn1cc([N+](=O)[O-])c(C(=O)N2N=C(c3ccc(Cl)c(Cl)c3)CC2c2ccccc2O)n1 (stereo unspecified),EC50,[1],> 260 µM (inactive)
same,Absolute IC50 (CHOP),[2],10 µM
CCC1SC(CC)C(=O)N(CC(=O)NC2CCCCC2)C1=O (stereo unspecified),IC50,Coagulation factor XII,> 50 µM (inactive)
CN(C)c1ccc(-c2nnn(Cc3ccccc3Br)n2)cc1,IC50,Cysteine protease ATG4B,13.2 µM (active)
same,IC50,Phospholipase A2,7.95 µM (active)
CC(=O)c1ccc(N2CCN(S(=O)(=O)c3cccc(S(=O)(=O)N4CCOCC4)c3)CC2)cc1,IC50,Coagulation factor XII,> 50 µM (inactive)
CCOc1ccc(N2C(=O)/C(=C\c3ccc(O)c(OC)c3)S(=O)(=O)C2c2cccc([N+](=O)[O-])c2)cc1 (stereo unspecified),EC50,[1],8.52 µM (active)
same,Absolute IC50 (CHOP),[2],10 µM
same,AC50,[3],2.96 µM (active)
same,EC50,Protein RecA,3.74 µM (active)
same,IC50,[4],9.57 µM (active)
same,IC50,[5],35.9 µM (active)
O=C1OC(Nc2ncccn2)c2ccccc21 (stereo unspecified),IC50,Coagulation factor XII,> 50 µM (inactive)
CCCNC1=C(N(C(C)=O)c2cccc(F)c2)C(=O)c2ccccc2C1=O,EC50,BJ [6],6.47 µM (inconclusive)
same,EC50,BJ [7],5.96 µM (active)
same,EC50,[8],1.23 µM (active)
same,CC50,[9],31 µM (active)
same,EC50,[10],1.14 µM (active)
same,EC50,[11],10.3 µM (active)
same,EC50,[12],0.979 µM (active)
same,EC50,BJ [13],6.6 µM (active)
same,EC50,[14],6.47 µM (active)
same,IC50,[15],> 50 µM (not active)
same,CC50,[16],1.47 µM (active)
same,CC50,[17],8.6 µM (active)
same,CC50,[18],17.7 µM (active)
same,IC50,cells,20.8 µM (active)
same,AC50,[3],9.44 µM (active)
same,EC50,Protein RecA,2.06 µM (active)
same,AC50,INS1,1.03 µM (active)
same,IC50,[19],> 4.75 µM (active)
